Source: article PMC6211254, “Determination of the inhibitory effects of N-methylpyrrole derivatives on glutathione reductase enzyme” (Journal of Enzyme Inhibition and Medicinal Chemistry, 2018)
Values joined by “and” are separate entries in the source; they are usually repeats but may differ in a detail not shown here. Identical values can stand only once.

Target: T1, GR from baker's yeast (S. cerevisiae) (Saccharomyces cerevisiae, UniProt P41921)
T1 sequence (P41921 17-483 limits assumed): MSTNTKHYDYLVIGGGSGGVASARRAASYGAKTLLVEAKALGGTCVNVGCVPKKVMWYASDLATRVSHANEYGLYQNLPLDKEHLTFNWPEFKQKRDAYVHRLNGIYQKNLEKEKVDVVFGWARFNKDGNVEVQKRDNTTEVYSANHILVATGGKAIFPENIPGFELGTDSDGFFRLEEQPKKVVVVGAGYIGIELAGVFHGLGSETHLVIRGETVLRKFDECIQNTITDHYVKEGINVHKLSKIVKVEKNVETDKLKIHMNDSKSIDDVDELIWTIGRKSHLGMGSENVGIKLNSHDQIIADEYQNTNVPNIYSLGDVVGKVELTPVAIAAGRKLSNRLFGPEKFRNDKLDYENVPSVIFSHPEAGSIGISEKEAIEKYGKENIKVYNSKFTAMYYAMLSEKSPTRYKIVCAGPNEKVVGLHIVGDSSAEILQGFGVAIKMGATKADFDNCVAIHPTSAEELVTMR
Test: Glutathione reductase inhibition (Beutler's method, NADPH and GSSG as substrates)
Format: biochemical
Settings: 25 °C, pH 8.0; mean from at least three determinations, errors ±3%; read-out: IC50 values obtained from regression analysis graphs for GR enzyme
Method: Activity of the glutathione enzyme was measured by Beutler’s method[22] in which one enzyme unit is defined as the oxidation of […] NADPH per min under the assay condition at 25 °C, pH 8.0. Different concentrations of the inhibitors were applied to the enzyme solutions and all compounds were tested in triplicate at each concentration used[18–21]. Control cuvette activity was assumed as 100% in the absence of inhibitor. A graphic of activity-versus inhibitor concentration was drawn for each compound (Figure 3).
In this work, we reported GR inhibitory capacity of N-methylpyrrole derivatives (8a-r). As known, glutathione reductase has been purified from various organisms and the influences of drugs, pesticides and various chemicals on GR activity have been investigated. In the current study, GR from baker's yeast (S. cerevisiae) was used and the inhibitory potentials of the synthetized compounds were determined using Beutler method with NADPH and GSSG as substrates and further kinetic studies were performed using the same method.

Going from `Cn1cccc1-c1ccccc1[N+](=O)[O-]` [Compound 8m] to `Cc1ccccc1-c1cccn1C` [Compound 8d], the IC50 rises from 0.104 µM to 1.05 µM (10-fold). The first is the more potent here.

First: O=NN(CCCl)C(=O)NCCCl [N,N-bis(2-chloroethyl)-N-nitrosourea, reference compound]
Second: Cn1cccc1-c1ccc(Br)cc1 [Compound 8e]
The IC50 of the first is 430-fold higher: 645 µM for the first, 1.5 µM for the second.

`Cc1cccc(-c2cccn2C)c1` [Compound 8c] and `Cc1ccc(-c2cccn2C)cc1` [Compound 8b] are within 1.5-fold of each other in IC50: 1.66 µM for the first, 1.4 µM for the second.

Compared with `COc1ccccc1-c1cccn1C` [Compound 8n], `Cn1cccc1-c1ccccc1` [Compound 8a] is 7.3-fold higher in IC50: 0.678 µM for the first, 4.94 µM for the second.

`Cn1cccc1-c1ccc(C#N)cc1` [Compound 8r] and `Cn1cccc1-c1ccc(F)cc1` [Compound 8i] are within 1.5-fold of each other in IC50: 1.79 µM for the first, 1.42 µM for the second.

Compound `Cn1cccc1-c1ccc(OC(F)(F)F)cc1` [Compound 8q] has an IC50 of 0.846 µM.

`COc1ccc(-c2cccn2C)cc1` [Compound 8o] was tested, and the IC50 was 0.678 µM and 1.44 µM.
